Earlier results, collected in patent US12387828B2, “System and method for ranking options for medical treatments” (PRXCISION LLC, priority 2015, dated 2025).

[1] = model value, multiplied by (WT/70)

CLt (total clearance) (equation in CLcr (mL/min) and WT (kg)): (10.2+2.08×CLcr)×(WT/70)×0.06
CLd (distributional clearance) [1]: 18.6 L/h
Vc (volume of the central compartment) [1]: 10.8 L
Vp (peripheral compartment volume) [1]: 12.6 L
SMILES: C[C@@H](O)[C@H]1C(=O)N2C(C(=O)O)=C(S[C@@H]3CN[C@H](C(=O)N(C)C)C3)[C@H](C)[C@H]12 [meropenem]
